The Ki is a dissociation constant, usually derived from enzyme kinetics or from competition with a known ligand.

This experiment concerns the target Serine/threonine-protein kinase ATR (Homo sapiens, UniProt Q13535). As to the kind of experiment: Inhibition Assay: Compounds were screened for their ability to inhibit ATR kinase using a radioactive-phosphate incorporation assay. Assays were carried out in a mixture of 50 mM Tris/HCl (pH 7.5), 10 mM MgCl2 and 1 mM DTT. Final substrate concentrations were 10 Î¼M [Î³-33P]ATP (3mCi 33P ATP/mmol ATP, Perkin Elmer) and 800 Î¼M target peptide (ASELPASQPQPFSAKKK).Assays were carried out at 25° C. in the presence of 5 nM full-length ATR. An assay stock buffer solution was prepared containing all of the reagents listed above, with the exception of ATP and the test compound of interest. 13.5 Î¼L of the stock solution was placed in a 96 well plate followed by addition of 2 Î¼L of DMSO stock containing serial dilutions of the test compound (typically starting from a final concentration of 15 Î¼M with 3-fold serial dilutions) in duplicate (final DMSO concentration 7%). The plate was pre-incubated for 10 minutes at 25° C. and the reaction initiated by addition of 15 Î¼L [Î³-33P]ATP.

Chain of Serine/threonine-protein kinase ATR (Q13535 whole entry): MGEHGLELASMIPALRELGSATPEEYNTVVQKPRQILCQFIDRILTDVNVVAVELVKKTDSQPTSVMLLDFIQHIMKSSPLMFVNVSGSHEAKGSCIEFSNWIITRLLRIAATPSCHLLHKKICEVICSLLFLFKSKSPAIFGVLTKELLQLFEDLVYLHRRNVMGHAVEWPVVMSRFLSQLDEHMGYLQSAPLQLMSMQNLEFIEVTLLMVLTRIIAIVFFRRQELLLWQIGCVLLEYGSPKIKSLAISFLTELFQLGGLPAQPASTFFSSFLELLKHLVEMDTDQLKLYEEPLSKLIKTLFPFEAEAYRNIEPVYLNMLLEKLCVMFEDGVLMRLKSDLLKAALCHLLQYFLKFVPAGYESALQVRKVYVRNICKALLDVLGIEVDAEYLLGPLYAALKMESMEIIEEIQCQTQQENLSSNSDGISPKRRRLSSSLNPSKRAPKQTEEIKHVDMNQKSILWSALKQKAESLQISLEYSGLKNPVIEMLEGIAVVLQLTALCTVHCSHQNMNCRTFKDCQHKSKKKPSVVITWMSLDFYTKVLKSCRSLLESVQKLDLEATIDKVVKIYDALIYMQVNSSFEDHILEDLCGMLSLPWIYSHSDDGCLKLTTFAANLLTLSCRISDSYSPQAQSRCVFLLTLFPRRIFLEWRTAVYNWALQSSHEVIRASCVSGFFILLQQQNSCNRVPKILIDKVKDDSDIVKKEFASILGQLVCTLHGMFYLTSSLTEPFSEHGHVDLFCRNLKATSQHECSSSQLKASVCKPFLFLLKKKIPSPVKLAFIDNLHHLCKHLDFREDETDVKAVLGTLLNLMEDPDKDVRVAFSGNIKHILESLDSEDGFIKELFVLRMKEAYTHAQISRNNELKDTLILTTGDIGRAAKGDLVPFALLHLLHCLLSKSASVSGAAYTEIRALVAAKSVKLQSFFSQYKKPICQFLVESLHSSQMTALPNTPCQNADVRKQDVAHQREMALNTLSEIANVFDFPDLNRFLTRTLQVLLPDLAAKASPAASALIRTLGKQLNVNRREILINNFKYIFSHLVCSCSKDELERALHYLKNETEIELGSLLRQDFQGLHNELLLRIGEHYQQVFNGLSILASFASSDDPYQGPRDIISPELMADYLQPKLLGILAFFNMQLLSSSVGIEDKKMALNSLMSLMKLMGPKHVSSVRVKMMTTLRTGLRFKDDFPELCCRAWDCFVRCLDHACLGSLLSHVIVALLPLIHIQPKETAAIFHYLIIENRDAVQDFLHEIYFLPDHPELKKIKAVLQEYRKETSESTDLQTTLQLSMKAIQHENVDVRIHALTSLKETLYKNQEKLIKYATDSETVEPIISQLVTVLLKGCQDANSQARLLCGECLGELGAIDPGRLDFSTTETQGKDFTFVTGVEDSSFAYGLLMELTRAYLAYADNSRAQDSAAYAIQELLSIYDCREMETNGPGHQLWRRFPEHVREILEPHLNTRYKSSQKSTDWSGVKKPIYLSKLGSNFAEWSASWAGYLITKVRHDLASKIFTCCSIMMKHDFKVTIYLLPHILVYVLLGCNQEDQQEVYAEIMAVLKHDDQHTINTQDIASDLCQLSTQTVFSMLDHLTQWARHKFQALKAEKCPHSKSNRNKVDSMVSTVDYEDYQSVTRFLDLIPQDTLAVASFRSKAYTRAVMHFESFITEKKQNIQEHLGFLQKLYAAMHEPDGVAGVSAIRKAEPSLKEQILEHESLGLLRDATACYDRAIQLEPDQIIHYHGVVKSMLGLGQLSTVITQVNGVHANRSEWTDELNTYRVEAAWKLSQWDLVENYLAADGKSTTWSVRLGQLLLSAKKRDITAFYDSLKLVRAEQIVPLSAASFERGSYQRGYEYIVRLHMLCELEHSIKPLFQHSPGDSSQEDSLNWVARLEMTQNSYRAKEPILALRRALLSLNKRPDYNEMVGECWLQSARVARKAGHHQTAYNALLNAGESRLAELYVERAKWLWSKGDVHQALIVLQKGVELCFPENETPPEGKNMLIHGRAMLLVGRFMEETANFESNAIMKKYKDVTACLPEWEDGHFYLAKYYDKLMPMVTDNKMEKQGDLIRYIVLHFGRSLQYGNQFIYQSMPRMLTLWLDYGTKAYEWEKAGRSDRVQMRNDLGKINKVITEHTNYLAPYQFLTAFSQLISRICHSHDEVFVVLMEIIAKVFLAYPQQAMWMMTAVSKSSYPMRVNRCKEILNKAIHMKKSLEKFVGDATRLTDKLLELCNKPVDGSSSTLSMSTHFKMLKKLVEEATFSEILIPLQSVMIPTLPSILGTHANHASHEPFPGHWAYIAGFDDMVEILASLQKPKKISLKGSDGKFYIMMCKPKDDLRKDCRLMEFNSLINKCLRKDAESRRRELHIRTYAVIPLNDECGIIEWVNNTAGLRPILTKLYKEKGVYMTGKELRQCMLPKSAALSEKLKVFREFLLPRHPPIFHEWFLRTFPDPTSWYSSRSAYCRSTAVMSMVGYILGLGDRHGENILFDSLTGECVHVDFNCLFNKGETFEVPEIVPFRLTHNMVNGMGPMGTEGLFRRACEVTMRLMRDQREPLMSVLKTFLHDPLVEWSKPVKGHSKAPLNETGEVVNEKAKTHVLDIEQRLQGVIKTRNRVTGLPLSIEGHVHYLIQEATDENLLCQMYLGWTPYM

`CNCc1ccc(C2=NOC(c3nc(-c4ccc(S(=O)(=O)C(C)C)cc4)cnc3N)C2)cc1` (stereo unspecified): the Ki was determined as 90 nM.

The values above are taken from ChEMBL document CHEMBL3638647, “Compounds useful as inhibitors of ATR kinase” (2014).
